Drawing on ChEMBL document CHEMBL1158556, “Design of pentapeptidic BACE1 inhibitors with carboxylic acid bioisosteres at P1' and P4 positions” (Bioorg Med Chem, 2010), this text covers inhibition and IC50 for 20 molecules.

Assay [1] deals with T1, Beta-secretase 1 (Homo sapiens, UniProt P56817). The assay is described as follows: Inhibition of human BACE1 at 2 uM by FRET assay.
Assay [2] concerns the target T1, Beta-secretase 1. The assay is described as follows: Inhibition of human BACE1 at 0.2 uM by FRET assay.
The target in assay [3] is T1, Beta-secretase 1. The assay is described as follows: Inhibition of human BACE1 by FRET assay.

T1 sequence (P56817 whole entry): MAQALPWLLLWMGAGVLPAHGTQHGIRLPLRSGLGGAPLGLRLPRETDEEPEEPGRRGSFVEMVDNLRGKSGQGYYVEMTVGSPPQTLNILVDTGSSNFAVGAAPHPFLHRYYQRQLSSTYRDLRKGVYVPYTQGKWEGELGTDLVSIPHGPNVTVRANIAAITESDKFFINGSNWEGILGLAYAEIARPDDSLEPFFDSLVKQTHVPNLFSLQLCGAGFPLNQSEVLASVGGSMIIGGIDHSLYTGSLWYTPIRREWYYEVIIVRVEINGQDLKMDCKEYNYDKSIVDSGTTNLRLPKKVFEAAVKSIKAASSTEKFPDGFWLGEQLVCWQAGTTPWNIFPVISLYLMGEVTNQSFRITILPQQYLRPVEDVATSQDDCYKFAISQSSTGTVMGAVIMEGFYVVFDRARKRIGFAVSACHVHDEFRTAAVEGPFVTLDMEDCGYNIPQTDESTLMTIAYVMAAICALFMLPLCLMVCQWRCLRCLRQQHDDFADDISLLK

With `CC(C)[C@H](NC(=O)[C@@H](N)CNC(=O)c1[nH]c(=O)[nH]c(=O)c1F)C(=O)N[C@@H](CC1CCCCC1)C(=O)N[C@@H](Cc1ccccc1)[C@@H](O)C(=O)Nc1cccc(-c2nn[nH]n2)c1`, the inhibition – broadly, the percentage by which the read-out fell short of the control – against Beta-secretase 1 [1] is greater than 99%.
Take `CC(C)C[C@H](NC(=O)[C@@H](NC(=O)[C@@H](N)CNC(=O)c1c[nH]cn1)C(C)C)C(=O)N[C@@H](Cc1ccccc1)[C@@H](O)C(=O)Nc1cccc(-c2nn[nH]n2)c1`: the figures for the inhibition against Beta-secretase 1 [1] and at Beta-secretase 1 [2] were 87% and 50%, respectively.
For `CC(C)[C@H](NC(=O)[C@@H](N)CNC(=O)c1nc[nH]n1)C(=O)N[C@@H](CC1CCCCC1)C(=O)N[C@@H](Cc1ccccc1)[C@@H](O)C(=O)Nc1cccc(-c2nn[nH]n2)c1`, in that order: 94% and 69%.
Taken in the same sequence, the figures for `CC(C)C[C@H](NC(=O)[C@@H](NC(=O)[C@@H](N)CNC(=O)c1[nH]c(=O)[nH]c(=O)c1F)C(C)C)C(=O)N[C@@H](Cc1ccccc1)[C@@H](O)C(=O)Nc1cccc(-c2n[nH]c(=S)o2)c1` were greater than 99% and 95%.
In the case of `CC(C)C[C@H](NC(=O)[C@@H](NC(=O)[C@@H](N)CNC(=O)c1[nH]c(=O)[nH]c(=O)c1F)C(C)C)C(=O)N[C@@H](Cc1ccccc1)[C@@H](O)C(=O)Nc1cccc(-c2noc(=S)[nH]2)c1`, the results for the inhibition against Beta-secretase 1 [1] and on Beta-secretase 1 [2] were greater than 99% and 95%, respectively. The IC50 (usually the concentration at which inhibition is half-maximal) against Beta-secretase 1 [3] was found to be 10.2 nM.
Regarding `CC(C)C[C@H](NC(=O)[C@@H](NC(=O)[C@@H](N)CNC(=O)c1cc(O)ccc1O)C(C)C)C(=O)N[C@@H](Cc1ccccc1)[C@@H](O)C(=O)Nc1cccc(-c2noc(=O)[nH]2)c1`, the inhibition against Beta-secretase 1 [1] was greater than 99%; against Beta-secretase 1 [2] it was 92%.
Take `CC(C)C[C@H](NC(=O)[C@@H](NC(=O)[C@@H](N)CNC(=O)c1[nH]c(=O)[nH]c(=O)c1F)C(C)C)C(=O)N[C@@H](Cc1ccccc1)[C@@H](O)C(=O)Nc1cccc(-c2nsc(=O)[nH]2)c1`: the inhibition amounted to 99% against Beta-secretase 1 [1] and 93% at Beta-secretase 1 [2].
Turning to `CC(C)C[C@H](NC(=O)[C@@H](NC(=O)[C@@H](N)CNC(=O)c1cc(O)ccc1O)C(C)C)C(=O)N[C@@H](Cc1ccccc1)[C@@H](O)C(=O)Nc1cccc(-c2nc(=S)o[nH]2)c1`, the IC50 against Beta-secretase 1 [3] amounted to 10.6 nM.
On to `CC(C)C[C@H](NC(=O)[C@@H](NC(=O)[C@@H](N)CNC(=O)c1nc[nH]n1)C(C)C)C(=O)N[C@@H](Cc1ccccc1)[C@@H](O)C(=O)Nc1cccc(-c2nn[nH]n2)c1`, for which the inhibition at Beta-secretase 1 [1] is 91%; against Beta-secretase 1 [2] it was 58%.
With `CC(C)[C@H](NC(=O)[C@@H](N)CNC(=O)c1nn[nH]n1)C(=O)N[C@@H](CC1CCCCC1)C(=O)N[C@@H](Cc1ccccc1)[C@@H](O)C(=O)Nc1cccc(-c2nn[nH]n2)c1`, the inhibition against Beta-secretase 1 [1] is greater than 99%.
Still for that read-out and setting: then `CC(C)C[C@H](NC(=O)[C@@H](NC(=O)[C@@H](N)CNC(=O)c1nn[nH]n1)C(C)C)C(=O)N[C@@H](Cc1ccccc1)[C@@H](O)C(=O)Nc1cccc(-c2nn[nH]n2)c1`, with greater than 99%.
With `CC(C)C[C@H](NC(=O)[C@@H](NC(=O)[C@@H](N)CNC(=O)c1cc(O)ccc1O)C(C)C)C(=O)N[C@@H](Cc1ccccc1)[C@@H](O)C(=O)Nc1cccc(-c2n[nH]c(=S)n2C)c1`, the figures for the inhibition against Beta-secretase 1 [1] and against Beta-secretase 1 [2] were 94% and 64%, respectively.
For `CC(C)[C@H](NC(=O)[C@@H](N)CNC(=O)c1c[nH]cn1)C(=O)N[C@@H](CC1CCCCC1)C(=O)N[C@@H](Cc1ccccc1)[C@@H](O)C(=O)Nc1cccc(-c2nn[nH]n2)c1`, in that order: 83% and 45%.
For the molecule `CC(C)C[C@H](NC(=O)[C@@H](NC(=O)[C@@H](N)CNC(=O)c1[nH]c(=O)[nH]c(=O)c1F)C(C)C)C(=O)N[C@@H](Cc1ccccc1)[C@@H](O)C(=O)Nc1cccc(-c2noc(=O)[nH]2)c1`, the inhibition against Beta-secretase 1 [1] was greater than 99%; at Beta-secretase 1 [2] it was 96%. The molecule also displayed an IC50 against Beta-secretase 1 [3] of 7.9 nM.
Take `CC(C)C[C@H](NC(=O)[C@@H](NC(=O)[C@@H](N)CNC(=O)c1cc(O)ccc1O)C(C)C)C(=O)N[C@@H](Cc1ccccc1)[C@@H](O)C(=O)Nc1cccc(-c2n[nH]c(=S)o2)c1`: the inhibition at Beta-secretase 1 [1] came out at 99%; against Beta-secretase 1 [2], 89%.
For `CC(C)C[C@H](NC(=O)[C@@H](NC(=O)[C@@H](N)CNC(=O)c1cc(O)ccc1O)C(C)C)C(=O)N[C@@H](Cc1ccccc1)[C@@H](O)C(=O)Nc1cccc(-c2nsc(=O)[nH]2)c1`, in that order: 99% and 92%.
For `CC(C)C[C@H](NC(=O)[C@@H](NC(=O)[C@@H](N)CNC(=O)c1cc(O)ccc1O)C(C)C)C(=O)N[C@@H](Cc1ccccc1)[C@@H](O)C(=O)Nc1cccc(-c2noc(=S)[nH]2)c1`, in that order: greater than 99% and 93%.
Take `CC(C)C[C@H](NC(=O)[C@@H](NC(=O)[C@@H](N)CNC(=O)c1[nH]c(=O)[nH]c(=O)c1F)C(C)C)C(=O)N[C@@H](Cc1ccccc1)[C@@H](O)C(=O)Nc1cccc(-c2n[nH]c(=S)n2C)c1`: the figures for the inhibition against Beta-secretase 1 [1] and against Beta-secretase 1 [2] were 99% and 92%, respectively.
Take `CC(C)C[C@H](NC(=O)[C@@H](NC(=O)[C@@H](N)CNC(=O)c1cc(O)ccc1O)C(C)C)C(=O)N[C@@H](Cc1ccccc1)[C@@H](O)C(=O)Nc1cccc(-c2nc(=O)o[nH]2)c1`: on Beta-secretase 1 [3], half-maximal inhibition (IC50) required 10 nM.
Take `CC(C)C[C@H](NC(=O)[C@@H](NC(=O)[C@@H](N)CNC(=O)c1[nH]c(=O)[nH]c(=O)c1F)C(C)C)C(=O)N[C@@H](Cc1ccccc1)[C@@H](O)C(=O)Nc1cccc(-c2nn[nH]n2)c1`: the inhibition on Beta-secretase 1 [1] is greater than 99%.
